# From patent publication US10357493B2, “Metalloenzyme inhibitor compounds” (Selenity Therapeutics (Bermuda), Ltd., priority 2017, dated 2019)
# How the values were obtained:
# HDAC1 = HDAC1 (Homo sapiens (Human), UniProt Q13547); assay: HDAC1 enzymatic assay; assay type: biochemical; details: read-out: Human HDAC1 IC50
# How it was run: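 Compound inhibition of human HDAC1 (0.5 ng enzyme, 10 uM substrate) was assessed by fluorescence after developer treatment, excitation 360 nm and emission 460 nm. Percent activity was normalized to no-compound (100%) and no-enzyme (0%) controls, plotted against concentration, and fitted to a sigmoidal dose-response curve in Graphpad Prism to obtain IC50 at half-maximal activity.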
# HDAC6 = HDAC6 (Homo sapiens (Human), UniProt Q9UBN7); assay: HDAC6 enzymatic assay; assay type: biochemical; details: read-out: Human HDAC6 IC50
# How it was run: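 Following a 17 hour room-temperature incubation of 2 ng HDAC6 with 10 uM substrate and compound, 50 μl developer was added for another 20 minutes, and fluorescence (excitation 360 nm, emission 460 nm) was recorded. Activity was normalized to no-compound (100%) and no-enzyme (0%) wells, and IC50 came from sigmoidal dose-response fitting in Graphpad Prism.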
# Chain of HDAC6 (Q9UBN7 whole entry): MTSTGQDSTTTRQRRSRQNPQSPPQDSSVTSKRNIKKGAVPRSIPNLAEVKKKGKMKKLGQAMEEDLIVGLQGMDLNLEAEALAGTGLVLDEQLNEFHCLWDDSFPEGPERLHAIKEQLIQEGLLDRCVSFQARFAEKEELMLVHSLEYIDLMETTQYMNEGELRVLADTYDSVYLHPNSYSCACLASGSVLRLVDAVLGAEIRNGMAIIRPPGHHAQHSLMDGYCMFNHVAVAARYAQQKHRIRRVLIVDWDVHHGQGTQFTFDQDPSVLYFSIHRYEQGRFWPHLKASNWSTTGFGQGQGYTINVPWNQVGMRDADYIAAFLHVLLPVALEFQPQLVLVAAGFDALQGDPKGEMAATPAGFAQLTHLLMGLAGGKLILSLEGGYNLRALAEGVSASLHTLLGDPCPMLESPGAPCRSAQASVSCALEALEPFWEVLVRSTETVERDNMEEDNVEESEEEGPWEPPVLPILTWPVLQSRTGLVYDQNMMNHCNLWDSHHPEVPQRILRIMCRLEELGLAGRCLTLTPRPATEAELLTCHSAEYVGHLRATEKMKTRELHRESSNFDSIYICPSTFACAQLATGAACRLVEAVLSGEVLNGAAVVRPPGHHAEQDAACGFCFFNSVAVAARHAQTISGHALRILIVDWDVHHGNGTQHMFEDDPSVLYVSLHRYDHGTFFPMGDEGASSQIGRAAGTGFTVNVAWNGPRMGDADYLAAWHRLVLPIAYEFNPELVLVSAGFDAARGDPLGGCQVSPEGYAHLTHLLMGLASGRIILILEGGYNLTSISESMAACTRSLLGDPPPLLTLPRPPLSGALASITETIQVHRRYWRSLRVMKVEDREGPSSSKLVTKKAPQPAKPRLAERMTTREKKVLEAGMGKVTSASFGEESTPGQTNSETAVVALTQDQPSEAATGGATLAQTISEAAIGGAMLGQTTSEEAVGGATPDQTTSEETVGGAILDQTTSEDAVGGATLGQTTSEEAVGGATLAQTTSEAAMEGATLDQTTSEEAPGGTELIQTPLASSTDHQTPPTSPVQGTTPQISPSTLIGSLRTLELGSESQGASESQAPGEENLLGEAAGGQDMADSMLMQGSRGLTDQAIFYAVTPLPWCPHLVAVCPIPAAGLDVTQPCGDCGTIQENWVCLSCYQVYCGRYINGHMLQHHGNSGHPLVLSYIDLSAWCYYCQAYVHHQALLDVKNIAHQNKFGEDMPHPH
# Chain of HDAC1 (Q13547 whole entry): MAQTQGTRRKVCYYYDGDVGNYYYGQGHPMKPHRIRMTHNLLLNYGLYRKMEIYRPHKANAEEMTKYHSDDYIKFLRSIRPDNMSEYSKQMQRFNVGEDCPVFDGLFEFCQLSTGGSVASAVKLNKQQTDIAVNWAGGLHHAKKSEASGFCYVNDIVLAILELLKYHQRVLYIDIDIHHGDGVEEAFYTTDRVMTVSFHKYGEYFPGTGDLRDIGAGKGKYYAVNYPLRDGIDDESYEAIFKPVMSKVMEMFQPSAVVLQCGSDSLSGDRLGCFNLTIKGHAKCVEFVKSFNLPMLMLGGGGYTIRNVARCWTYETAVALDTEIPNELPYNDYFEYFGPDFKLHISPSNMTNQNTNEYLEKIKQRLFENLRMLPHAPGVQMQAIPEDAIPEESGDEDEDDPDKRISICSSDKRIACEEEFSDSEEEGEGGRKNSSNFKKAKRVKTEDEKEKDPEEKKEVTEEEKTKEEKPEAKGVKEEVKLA
Compound,IC50 (HDAC1) [nM],IC50 (HDAC6) [nM]
"Fc1ccc(C(COc2ccccc2)Nc2ncc(-c3nnc(C(F)F)o3)cn2)cc1 (stereo not shown) [Example 19, 5-(5-(difluoromethyl)-1,3,4-oxadiazol-2-yl)-N-(1-(4-fluorophenyl)-2-phenoxyethyl)pyrimidin-2-amine]",> 30000,47
"CC(C)C(Nc1ncc(-c2nnc(C(F)F)o2)cn1)c1ccc(F)cc1 (stereo not shown) [Example 24, 5-(5-(difluoromethyl)-1,3,4-oxadiazol-2-yl)-N-(1-(4-fluorophenyl)-2-methylpropyl)pyrimidin-2-amine]",> 30000,95
"N#Cc1ccc(C2(Nc3ncc(-c4nnc(C(F)F)o4)cn3)CC2)cn1 [Example 25, 5-(1-((5-(5-(difluoromethyl)-1,3,4-oxadiazol-2-yl)pyrimidin-2-yl)amino)cyclopropyl)picolinonitrile]",> 30000,> 1000
"CC(=O)N1CCC(Nc2ncc(-c3nnc(C(F)F)o3)cn2)(c2ccc(F)cc2)CC1 [Example 26, 1-(4-((5-(5-(difluoromethyl)-1,3,4-oxadiazol-2-yl)pyrimidin-2-yl)amino)-4-(4-fluorophenyl)piperidin-1-yl)ethan-1-one]",> 30000,140
"FC(F)c1nnc(-c2cnc(NC3(C4CCCCC4)CC3)nc2)o1 [Example 27, N-(1-cyclohexylcyclopropyl)-5-(5-(difluoromethyl)-1,3,4-oxadiazol-2-yl)pyrimidin-2-amine]",> 30000,74
"Fc1ccc2c(c1)CCC2Nc1ncc(-c2nnc(C(F)F)o2)cn1 (stereo not shown) [Example 29, 5-(5-(difluoromethyl)-1,3,4-oxadiazol-2-yl)-N-(5-fluoro-2,3-dihydro-1H-inden-1-yl)pyrimidin-2-amine]",> 30000,450
"Fc1cc(OC(F)F)ccc1C1(Nc2ncc(-c3nnc(C(F)F)o3)cn2)CC1 [Example 33, N-(1-(4-(difluoromethoxy)-2-fluorophenyl)cyclopropyl)-5-(5-(difluoromethyl)-1,3,4-oxadiazol-2-yl)pyrimidin-2-amine]",> 30000,29
"Fc1ccc2c(c1)CCCC2Nc1ncc(-c2nnc(C(F)F)o2)cn1 (stereo not shown) [Example 34, 5-(5-(difluoromethyl)-1,3,4-oxadiazol-2-yl)-N-(6-fluoro-1,2,3,4-tetrahydronaphthalen-1-yl)pyrimidin-2-amine]",> 30000,790
"O=C(Nc1ccccc1)C(Nc1ncc(-c2nnc(C(F)F)o2)cn1)c1ccc(F)cc1 (stereo not shown) [Example 35, 2-((5-(5-(difluoromethyl)-1,3,4-oxadiazol-2-yl)pyrimidin-2-yl)amino)-2-(4-fluorophenyl)-N-phenylacetamide]",> 30000,170
"Fc1ccc(C2(Nc3ncc(-c4nnc(C(F)F)o4)cn3)CCC(F)(F)CC2)cc1 [Example 37, N-(4,4-difluoro-1-(4-fluorophenyl)cyclohexyl)-5-(5-(difluoromethyl)-1,3,4-oxadiazol-2-yl)pyrimidin-2-amine]",> 30000,180
"O=S(=O)(NCC(Nc1ncc(-c2nnc(C(F)F)o2)cn1)c1ccc(F)cc1)c1ccccc1 (stereo not shown) [Example 39, N-(2-((5-(5-(difluoromethyl)-1,3,4-oxadiazol-2-yl)pyrimidin-2-yl)amino)-2-(4-fluorophenyl)ethyl)benzenesulfonamide]",> 30000,50
"COc1cccc(C2(Nc3ncc(-c4nnc(C(F)(F)F)o4)cn3)CC2)c1 [Example 41, N-(1-(3-methoxyphenyl)cyclopropyl)-5-(5-(trifluoromethyl)-1,3,4-oxadiazol-2-yl)pyrimidin-2-amine]",> 30000,250
"COc1ccc(C2(Nc3ncc(-c4nnc(C(F)(F)F)o4)cn3)CC2)cc1 [Example 42, N-(1-(4-methoxyphenyl)cyclopropyl)-5-(5-(trifluoromethyl)-1,3,4-oxadiazol-2-yl)pyrimidin-2-amine]",> 30000,250
"COc1cccc(C2(Nc3ncc(-c4nnc(C(F)F)o4)cn3)CC2)c1 [Example 43, 5-(5-(difluoromethyl)-1,3,4-oxadiazol-2-yl)-N-(1-(3-methoxyphenyl)cyclopropyl)pyrimidin-2-amine]",> 30000,39
"FC(F)c1nnc(-c2cnc(NC3(c4ccc(Cl)cc4)CC3)nc2)o1 [Example 50, N-(1-(4-chlorophenyl)cyclopropyl)-5-(5-(difluoromethyl)-1,3,4-oxadiazol-2-yl)pyrimidin-2-amine]",> 30000,30

# Further lines, results first:
IC50 (HDAC1) [nM],IC50 (HDAC6) [nM],Compound
> 30000,33,"CC(Nc1ncc(-c2nnc(C(F)F)o2)cn1)c1ccc(F)cc1 (stereo not shown) [Example 20, 5-(5-(difluoromethyl)-1,3,4-oxadiazol-2-yl)-N-(1-(4-fluorophenyl)ethyl)pyrimidin-2-amine]"
> 30000,77,"COCC(Nc1ncc(-c2nnc(C(F)F)o2)cn1)c1ccc(F)cc1 (stereo not shown) [Example 21, 5-(5-(difluoromethyl)-1,3,4-oxadiazol-2-yl)-N-(1-(4-fluorophenyl)-2-methoxyethyl)pyrimidin-2-amine]"
> 30000,71,"CCC(Nc1ncc(-c2nnc(C(F)F)o2)cn1)c1ccc(F)cc1 (stereo not shown) [Example 22, 5-(5-(difluoromethyl)-1,3,4-oxadiazol-2-yl)-N-(1-(4-fluorophenyl)propyl)pyrimidin-2-amine]"
> 30000,100,"CCCC(Nc1ncc(-c2nnc(C(F)F)o2)cn1)c1ccc(F)cc1 (stereo not shown) [Example 23, 5-(5-(difluoromethyl)-1,3,4-oxadiazol-2-yl)-N-(1-(4-fluorophenyl)butyl)pyrimidin-2-amine]"
> 30000,610,"CC(C)C1(Nc2ncc(-c3nnc(C(F)F)o3)cn2)CC1 [Example 28, 5-(5-(difluoromethyl)-1,3,4-oxadiazol-2-yl)-N-(1-isopropylcyclopropyl)pyrimidin-2-amine]"
> 30000,770,"O=C(C(Nc1ncc(-c2nnc(C(F)F)o2)cn1)c1ccc(F)cc1)N1CCOCC1 (stereo not shown) [Example 30, 2-((5-(5-(difluoromethyl)-1,3,4-oxadiazol-2-yl)pyrimidin-2-yl)amino)-2-(4-fluorophenyl)-1-morpholinoethan-1-one]"
> 30000,120,"CC(Nc1ncc(-c2nnc(C(F)F)o2)cn1)c1ccc(F)cn1 (stereo not shown) [Example 31, 5-(5-(difluoromethyl)-1,3,4-oxadiazol-2-yl)-N-(1-(5-fluoropyridin-2-yl)ethyl)pyrimidin-2-amine]"
> 30000,59,"FC(F)Oc1ccc(C2(Nc3ncc(-c4nnc(C(F)F)o4)cn3)CC2)cc1 [Example 32, N-(1-(4-(difluoromethoxy)phenyl)cyclopropyl)-5-(5-(difluoromethyl)-1,3,4-oxadiazol-2-yl)pyrimidin-2-amine]"
> 30000,64,"Fc1ccc(C(Nc2ncc(-c3nnc(C(F)F)o3)cn2)C2CC2)cc1 (stereo not shown) [Example 36, N-(cyclopropyl(4-fluorophenyl)methyl)-5-(5-(difluoromethyl)-1,3,4-oxadiazol-2-yl)pyrimidin-2-amine]"
> 30000,29,"CS(=O)(=O)NCC(Nc1ncc(-c2nnc(C(F)F)o2)cn1)c1ccc(F)cc1 (stereo not shown) [Example 38, N-(2-((5-(5-(difluoromethyl)-1,3,4-oxadiazol-2-yl)pyrimidin-2-yl)amino)-2-(4-fluorophenyl)ethyl)methanesulfonamide]"
> 30000,220,"COc1ccccc1C1(Nc2ncc(-c3nnc(C(F)(F)F)o3)cn2)CC1 [Example 40, N-(1-(2-methoxyphenyl)cyclopropyl)-5-(5-(trifluoromethyl)-1,3,4-oxadiazol-2-yl)pyrimidin-2-amine]"
> 30000,44,"COc1ccc(C2(Nc3ncc(-c4nnc(C(F)F)o4)cn3)CC2)cc1 [Example 44, 5-(5-(difluoromethyl)-1,3,4-oxadiazol-2-yl)-N-(1-(4-methoxyphenyl)cyclopropyl)pyrimidin-2-amine]"
> 30000,64,"FC(F)c1nnc(-c2cnc(NC3(c4ccc(C(F)(F)F)cc4)CC3)nc2)o1 [Example 45, 5-(5-(difluoromethyl)-1,3,4-oxadiazol-2-yl)-N-(1-(4-(trifluoromethyl)phenyl)cyclopropyl) pyrimidin-2-amine]"
> 30000,23,"COc1ccccc1C1(Nc2ncc(-c3nnc(C(F)F)o3)cn2)CC1 [Example 46, 5-(5-(difluoromethyl)-1,3,4-oxadiazol-2-yl)-N-(1-(2-methoxyphenyl)cyclopropyl)pyrimidin-2-amine]"
> 30000,27,"FC(F)c1nnc(-c2cnc(NC3(c4ccc(Br)cc4)CC3)nc2)o1 [Example 47, N-(1-(4-bromophenyl)cyclopropyl)-5-(5-(difluoromethyl)-1,3,4-oxadiazol-2-yl)pyrimidin-2-amine]"
> 30000,46,"N#Cc1ccc(C2(Nc3ncc(-c4nnc(C(F)F)o4)cn3)CC2)cc1 [Example 48, 4-(1-((5-(5-(difluoromethyl)-1,3,4-oxadiazol-2-yl)pyrimidin-2-yl)amino)cyclopropyl) benzonitrile]"
> 30000,16,"FC(F)c1nnc(-c2cnc(NC3(c4cccc(C(F)(F)F)c4)CC3)nc2)o1 [Example 49, 5-(5-(difluoromethyl)-1,3,4-oxadiazol-2-yl)-N-(1-(3-(trifluoromethyl)phenyl)cyclopropyl) pyrimidin-2-amine]"
